# According to ChEMBL document CHEMBL1201862, “PubChem BioAssay data set” (2004):
#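 Cultured in 96-well plates, cells were exposed to test compound for 48 hours across five concentrations. GI50: concentration for 50% inhibition of growth.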 The source made the active and inactive calls. Rule as the data show it: active = GI50 up to about 1.1 µM and inactive = higher.
# Experiments:
# Test in all cases: inhibition of tumour cell growth, NCI panel, 48 h
# HOP-92 = tested on: HOP-92
# COLO 205 = tested on: COLO 205
# NCI/ADR-RES = tested on: NCI/ADR-RES
# IGROV-1 = tested on: IGROV-1
# OVCAR-8 = tested on: OVCAR-8
# MDA-MB-231 = tested on: MDA-MB-231
# HCT-15 = tested on: HCT-15
# PC-3 = tested on: PC-3
# HL-60 = tested on: HL-60
# HOP-62 = tested on: HOP-62
# K562 = tested on: K562
# SK-MEL-28 = tested on: SK-MEL-28
# 786-0 = tested on: 786-0
# RPMI-8226 = tested on: RPMI-8226
# M14 = tested on: M14
# DU-145 = tested on: DU-145
# SR = tested on: SR
# SNB-75 = tested on: SNB-75
# RXF 393 = tested on: RXF 393
# SK-MEL-2 = tested on: SK-MEL-2
# SNB-19 = tested on: SNB-19
# UO-31 = tested on: UO-31
# HCT-116 = tested on: HCT-116
# MDA-MB-435 = tested on: MDA-MB-435
# UACC-62 = tested on: UACC-62
# A498 = tested on: A498
# OVCAR-5 = tested on: OVCAR-5
# MCF7 = tested on: MCF7
# SF-539 = tested on: SF-539
# OVCAR-3 = tested on: OVCAR-3
# T47D = tested on: T47D
# NCI-H522 = tested on: NCI-H522
# EKVX = tested on: EKVX
# SF-295 = tested on: SF-295
# CAKI-1 = tested on: CAKI-1
# SW-620 = tested on: SW-620
# MDA-N = tested on: MDA-N
# Malme-3M = tested on: Malme-3M
# NCI-H460 = tested on: NCI-H460
# TK-10 = tested on: TK-10
# SK-MEL-5 = tested on: SK-MEL-5
# OVCAR-4 = tested on: OVCAR-4
# SF-268 = tested on: SF-268
# SN12C = tested on: SN12C
# MOLT-4 = tested on: MOLT-4
# A549 = tested on: A549
# U-251 = tested on: U-251
# LOX IMVI = tested on: LOX IMVI
# ACHN = tested on: ACHN
# NCI-H226 = tested on: NCI-H226
# Hs-578T = tested on: Hs-578T
# HT-29 = tested on: HT-29
# KM12 = tested on: KM12
# BT-549 = tested on: BT-549
# UACC-257 = tested on: UACC-257
# SK-OV-3 = tested on: SK-OV-3
# CCRF-CEM = tested on: CCRF-CEM
# NCI-H23 = tested on: NCI-H23
# HCC 2998 = tested on: HCC 2998
smiles,measurement,setting,value
CC1CCCC2(CC[N+](C)(CCC[N+](C)(C)C)CC2)C1 (stereo unspecified),GI50,HOP-92,> 100 µM (inactive)
same,GI50,COLO 205,> 100 µM (inactive)
same,GI50,NCI/ADR-RES,> 100 µM (inactive)
same,GI50,IGROV-1,> 100 µM (inactive)
same,GI50,OVCAR-8,> 100 µM (inactive)
same,GI50,MDA-MB-231,> 100 µM (inactive)
same,GI50,HCT-15,> 100 µM
same,GI50,PC-3,> 100 µM (inactive)
same,GI50,HL-60,5.48 µM (inactive)
same,GI50,HOP-62,> 100 µM (inactive)
same,GI50,K562,> 100 µM (inactive)
same,GI50,SK-MEL-28,> 100 µM (inactive)
same,GI50,786-0,> 100 µM (inactive)
same,GI50,RPMI-8226,> 100 µM (inactive)
same,GI50,M14,> 100 µM (inactive)
same,GI50,DU-145,> 100 µM (inactive)
same,GI50,SR,> 100 µM (inactive)
same,GI50,SNB-75,> 100 µM (inactive)
same,GI50,RXF 393,> 100 µM (inactive)
same,GI50,SK-MEL-2,> 100 µM (inactive)
same,GI50,SNB-19,> 100 µM (inactive)
same,GI50,UO-31,> 100 µM (inactive)
same,GI50,HCT-116,> 100 µM (inactive)
same,GI50,MDA-MB-435,> 100 µM (inactive)
same,GI50,UACC-62,> 100 µM (inactive)
same,GI50,A498,> 100 µM (inactive)
same,GI50,OVCAR-5,> 100 µM (inactive)
same,GI50,MCF7,> 100 µM (inactive)
same,GI50,SF-539,> 100 µM (inactive)
same,GI50,OVCAR-3,> 100 µM (inactive)
same,GI50,T47D,> 100 µM (inactive)
same,GI50,NCI-H522,> 100 µM (inactive)
same,GI50,EKVX,> 100 µM (inactive)
same,GI50,SF-295,> 100 µM (inactive)
same,GI50,CAKI-1,> 100 µM (inactive)
same,GI50,SW-620,> 100 µM (inactive)
same,GI50,MDA-N,> 100 µM (inactive)
same,GI50,Malme-3M,> 100 µM (inactive)
same,GI50,NCI-H460,> 100 µM (inactive)
same,GI50,TK-10,> 100 µM (inactive)
same,GI50,SK-MEL-5,> 100 µM (inactive)
same,GI50,OVCAR-4,> 100 µM (inactive)
same,GI50,SF-268,> 100 µM (inactive)
same,GI50,SN12C,> 100 µM (inactive)
same,GI50,MOLT-4,> 100 µM (inactive)
same,GI50,A549,> 100 µM (inactive)
same,GI50,U-251,> 100 µM (inactive)
same,GI50,LOX IMVI,> 100 µM (inactive)
same,GI50,ACHN,> 100 µM (inactive)
same,GI50,NCI-H226,> 100 µM (inactive)
same,GI50,Hs-578T,> 100 µM (inactive)
same,GI50,HT-29,> 100 µM (inactive)
same,GI50,KM12,> 100 µM (inactive)
same,GI50,BT-549,> 100 µM (inactive)
same,GI50,UACC-257,> 100 µM (inactive)
same,GI50,SK-OV-3,> 100 µM (inactive)
CN(C)CCn1c(=O)c2ccc(NCCNCCO)c3c(=O)c4ccccc4n(c1=O)c23,GI50,CCRF-CEM,< 0.01 µM (active)
same,GI50,HOP-92,0.03 µM (active)
same,GI50,COLO 205,0.0703 µM (active)
same,GI50,NCI/ADR-RES,1.72 µM (inactive)
same,GI50,IGROV-1,0.0596 µM (active)
same,GI50,OVCAR-8,0.0632 µM (active)
same,GI50,MDA-MB-231,0.22 µM (active)
same,GI50,HCT-15,0.279 µM
same,GI50,PC-3,0.182 µM (active)
same,GI50,HL-60,< 0.01 µM (active)
same,GI50,HOP-62,0.0287 µM (active)
same,GI50,K562,0.0245 µM (active)
same,GI50,SK-MEL-28,0.815 µM (active)
same,GI50,786-0,0.0149 µM (active)
same,GI50,RPMI-8226,< 0.0394 µM (active)
same,GI50,M14,0.14 µM (active)
same,GI50,DU-145,0.0217 µM (active)
same,GI50,SR,< 0.01 µM (active)
same,GI50,SNB-75,0.0445 µM (active)
same,GI50,SK-MEL-2,0.423 µM (active)
same,GI50,SNB-19,0.182 µM (active)
same,GI50,UO-31,0.126 µM (active)
same,GI50,HCT-116,0.0492 µM (active)
same,GI50,MDA-MB-435,0.228 µM (active)
same,GI50,UACC-62,0.0467 µM (active)
same,GI50,A498,0.106 µM (active)
same,GI50,OVCAR-5,0.298 µM (active)
same,GI50,MCF7,< 0.01 µM (active)
same,GI50,SF-539,0.0428 µM (active)
same,GI50,OVCAR-3,0.288 µM (active)
same,GI50,T47D,0.129 µM (active)
same,GI50,NCI-H522,0.0581 µM (active)
same,GI50,EKVX,0.231 µM (active)
same,GI50,SF-295,0.0469 µM (active)
same,GI50,CAKI-1,< 0.0108 µM (active)
same,GI50,SW-620,0.027 µM (active)
same,GI50,MDA-N,0.328 µM (active)
same,GI50,Malme-3M,0.336 µM (active)
same,GI50,NCI-H460,< 0.01 µM (active)
same,GI50,NCI-H23,0.0342 µM (active)
same,GI50,TK-10,0.764 µM (active)
same,GI50,SK-MEL-5,0.0716 µM (active)
same,GI50,OVCAR-4,0.514 µM (active)
same,GI50,SF-268,0.0471 µM (active)
same,GI50,SN12C,0.0206 µM (active)
same,GI50,MOLT-4,< 0.01 µM (active)
same,GI50,A549,< 0.0121 µM (active)
same,GI50,U-251,0.0468 µM (active)
same,GI50,LOX IMVI,0.0341 µM (active)
same,GI50,ACHN,0.0116 µM (active)
same,GI50,NCI-H226,0.0348 µM (active)
same,GI50,Hs-578T,0.23 µM (active)
same,GI50,HT-29,0.0853 µM (active)
same,GI50,KM12,0.249 µM (active)
same,GI50,BT-549,1.21 µM (inactive)
same,GI50,UACC-257,0.368 µM (active)
same,GI50,SK-OV-3,0.164 µM (active)
same,GI50,HCC 2998,< 0.0329 µM (active)
O=C(O)CN(CC(=O)O)Cc1cc2c(cc1O)Oc1cc(O)c(CN(CC(=O)O)CC(=O)O)cc1C21OC(=O)c2ccccc21 [OFTASCEINE],GI50,CCRF-CEM,> 100 µM (inactive)
same,GI50,HOP-92,> 100 µM (inactive)
same,GI50,COLO 205,> 100 µM (inactive)
same,GI50,NCI/ADR-RES,> 100 µM (inactive)
same,GI50,IGROV-1,> 100 µM (inactive)
same,GI50,OVCAR-8,> 100 µM (inactive)
same,GI50,MDA-MB-231,> 100 µM (inactive)
same,GI50,HCT-15,> 100 µM
same,GI50,PC-3,> 100 µM (inactive)
same,GI50,HL-60,> 100 µM (inactive)
same,GI50,HOP-62,> 100 µM (inactive)
same,GI50,K562,> 100 µM (inactive)
same,GI50,SK-MEL-28,> 100 µM (inactive)
same,GI50,786-0,> 100 µM (inactive)
same,GI50,RPMI-8226,> 100 µM (inactive)
same,GI50,M14,> 100 µM (inactive)
same,GI50,DU-145,> 100 µM (inactive)
same,GI50,SR,> 100 µM (inactive)
same,GI50,SNB-75,> 100 µM (inactive)
same,GI50,SK-MEL-2,> 100 µM (inactive)
same,GI50,SNB-19,> 100 µM (inactive)
same,GI50,UO-31,> 100 µM (inactive)
same,GI50,HCT-116,> 100 µM (inactive)
same,GI50,MDA-MB-435,> 100 µM (inactive)
same,GI50,UACC-62,> 100 µM (inactive)
same,GI50,A498,> 100 µM (inactive)
same,GI50,OVCAR-5,> 100 µM (inactive)
same,GI50,MCF7,> 100 µM (inactive)
same,GI50,SF-539,> 100 µM (inactive)
same,GI50,OVCAR-3,> 100 µM (inactive)
same,GI50,T47D,> 100 µM (inactive)
same,GI50,NCI-H522,> 100 µM (inactive)
same,GI50,EKVX,> 100 µM (inactive)
same,GI50,SF-295,> 100 µM (inactive)
same,GI50,CAKI-1,> 100 µM (inactive)
same,GI50,SW-620,> 100 µM (inactive)
same,GI50,MDA-N,> 100 µM (inactive)
same,GI50,NCI-H460,> 10 µM (inactive)
same,GI50,NCI-H23,> 100 µM (inactive)
same,GI50,TK-10,> 100 µM (inactive)
same,GI50,SK-MEL-5,> 100 µM (inactive)
same,GI50,OVCAR-4,> 100 µM (inactive)
same,GI50,SF-268,> 100 µM (inactive)
same,GI50,SN12C,> 100 µM (inactive)
same,GI50,MOLT-4,> 100 µM (inactive)
same,GI50,A549,> 100 µM (inactive)
same,GI50,U-251,> 100 µM (inactive)
same,GI50,LOX IMVI,> 100 µM (inactive)
same,GI50,ACHN,> 100 µM (inactive)
same,GI50,NCI-H226,> 100 µM (inactive)
same,GI50,Hs-578T,> 100 µM (inactive)
same,GI50,HT-29,> 100 µM (inactive)
same,GI50,KM12,> 100 µM (inactive)
same,GI50,BT-549,> 100 µM (inactive)
same,GI50,UACC-257,> 100 µM (inactive)
same,GI50,SK-OV-3,> 100 µM (inactive)
same,GI50,HCC 2998,> 100 µM (inactive)
